Among the data in ChEMBL document CHEMBL3507680, “University of Dundee, Gates Library screen for HepG2 cell viability” are cytotoxicity values, retold here.

The structures appear in SMILES notation.

The series is described as follows: Human HepG2 cell viability assay in 384 well format. It is filed as toxicity, cell-based. More on the design: dose 125 nL, time 70.5 hour; concentration not given beside the values. The note with it: HepG2 cells, read-out: Inhibition.

`COc1ccc(Cl)cc1-c1nc(N)nc(N(C)C)n1`: the cytotoxicity at 70.5 h is -6.28%.
For the compound `Cc1cc(NCCN)nc2ccccc12`, the cytotoxicity at 70.5 h is -11.3%.
To `COC1CCCN(Cc2nc(Cc3ccccc3F)no2)C1` (configuration not stated) belongs -5.83%; to `Cc1ccc(OCc2occc2C(=O)O)cc1`, -5.9%; to `NC(=O)C(Cc1ccccc1)NS(=O)(=O)Cc1ccccc1Cl` (configuration not stated), 7.03%.
Consider `CCn1cnnc1CN(C)C(=O)C1CCC(=O)N(CC2CCCCC2)C1` (configuration not stated), for which the cytotoxicity at 70.5 h is -6.42%.
Take `NS(=O)(=O)c1cccnc1NCc1ccco1`: the cytotoxicity at 70.5 h was -4.56%.
Consider `CC(=O)NCCC(=O)NCc1cccnc1-n1cnc2ccccc21`, for which the cytotoxicity at 70.5 h was -8.92%.
To `CCC(=O)N1CCCc2c(cnn2C)C1` belongs 23.9%; to `Cn1ncc2c1CCCN(C(=O)C1CCC1)C2`, -2.82%.
To `O=C(c1sccc1-n1cnnn1)N1CCC(Cc2ccccc2)CC1` belongs -4.62%; to `CCOc1ccccc1-c1noc(CN(C)Cc2cnn(C)c2)n1`, 2%.
Take `CCc1ncc(C(=O)N2CCN(C(=O)COc3ccccc3)CC2)cn1`: the cytotoxicity at 70.5 h was -3.1%.
For `Cc1nccn1CCC1CCN(c2ccncn2)CC1`, the cytotoxicity at 70.5 h was -2.98%.
`CN1C[C@@H](NC(=O)C(C)(C)C)C[C@H]1C(=O)NCc1ncc[nH]1`: the cytotoxicity at 70.5 h was -8.54%.
Take `Cc1cccc2[nH]c(C3CCN(C(=O)c4c[nH]c(=O)[nH]c4=O)CC3)nc12`: the cytotoxicity at 70.5 h is -7.98%.
For `Cc1c(C(C)NC(=O)Nc2ccc(F)cc2F)cnn1C` (configuration not stated), the cytotoxicity at 70.5 h is -3.54%.
In the case of `OCC1CCCCN1CCCNCc1cc(O)c2cc(F)ccc2n1` (configuration not stated), the cytotoxicity at 70.5 h is -4.1%.
For `Cc1nonc1CN(C)c1nc(-c2cccnc2)nc2c1CCNC2`, the cytotoxicity at 70.5 h came out at 0.678%.
As to `COCCN1CCC(CN(CC2CCCO2)C(=O)Cn2cccn2)CC1` (configuration not stated), the cytotoxicity at 70.5 h was -4.66%.
Consider `Cc1nc(-c2cccc(N3CCC(N4CCCC4)CC3)c2)cs1`, for which the cytotoxicity at 70.5 h was 13.8%.
Consider `O=C(c1ccc2sccc2c1)N1CCC(C(=O)O)(n2cccn2)CC1`, for which the cytotoxicity at 70.5 h is -6.51%.
As to `COc1cnc(N2CCCN(Cc3ccc(F)cc3)CC2)nc1`, the cytotoxicity at 70.5 h is 4.55%.
As to `CC(C)=CCN1Cc2nnc(C3CCOCC3)n2C(Cc2c[nH]cn2)C1` (configuration not stated), the cytotoxicity at 70.5 h is -5.43%.
Take `Cc1nccnc1N1Cc2cnn(Cc3ccc(F)cc3)c2C1`: the cytotoxicity at 70.5 h is -0.0825%.
As for `CCNc1ccc(-c2ccnc3c2ccn3C)nn1`, the cytotoxicity at 70.5 h is -5.15%.
Take `CCC(C)N(CC)C(=O)c1ccc2[nH]nnc2c1` (configuration not stated): the cytotoxicity at 70.5 h was -6.36%.
For `CCn1cc(CN(C)Cc2cnn(-c3ccc(F)cc3)c2)cn1`, the cytotoxicity at 70.5 h is 13.5%.
Under `c1coc(-c2nc(CNC3CCC4(CCNCC4)CC3)no2)c1` stands -3.78%; under `Cc1nccn1C1(C(=O)O)CCN(Cc2ccc3c(c2)OCCO3)CC1`, -3.95%.
Turning to `O=C(c1ccc(S(=O)(=O)NCc2ccon2)cc1)N1CCNCC1`, the cytotoxicity at 70.5 h is -6.36%.
Under `CN(C)S(=O)(=O)N1CCOCC1CC(=O)NCCOc1ccccc1` (configuration not stated) stands -15.5%; under `O=C(CC1COCCN1)N1CCCN(C2Cc3ccccc3C2)CC1` (configuration not stated), -3.92%; under `Cc1cc(C2CCC2)nc(N(C)Cc2ncccc2C)n1`, 2.14%.
For the compound `COc1cccc(-c2n[nH]c3c2CN(C(=O)c2ccncc2)CC3)c1`, the cytotoxicity at 70.5 h is -5.87%.
Turning to `COc1cc(C)cc(-c2nc3c([nH]2)CCNC3)c1OC`, the cytotoxicity at 70.5 h came to 9.79%.
Consider `O=C(NC1CC1)C1CNCCN1C(=O)CCc1ccc2c(c1)OCO2` (configuration not stated), for which the cytotoxicity at 70.5 h is -3.72%.
To `O=C(c1cc2c([nH]c1=O)CCC2)N1CCCCC1c1cccc(F)c1` (configuration not stated) belongs 2.02%; to `COCCC(=O)N1CCCC(CCc2ccc(F)c(F)c2)C1` (configuration not stated), -9.08%.
For the compound `O=C(O)C(c1ccc(Cl)c(F)c1)N1CCN(Cc2ccccn2)CC1` (configuration not stated), the cytotoxicity at 70.5 h was -2.57%.
Take `CCCc1cc(C(=O)N2C[C@H]3CC=C(C)C[C@H]3C2)ccn1`: the cytotoxicity at 70.5 h is -8.24%.
Regarding `N#Cc1cccc(C(=O)N2CCCC(C(=O)CCc3ccccc3)C2)c1` (configuration not stated), the cytotoxicity at 70.5 h is -5.64%.
Regarding `O=C1CCCN1CCN1CC[C@@]2(O)CCN(c3ncccn3)C[C@H]2C1`, the cytotoxicity at 70.5 h is 15.5%.
Take `COc1ccc([C@@H]2CN(Cc3cccnc3N)C[C@H]2N(C)C)cc1`: the cytotoxicity at 70.5 h is -2.88%.
Turning to `CCc1nc2c(NCC3COc4ccccc4C3)ncnc2o1` (configuration not stated), the cytotoxicity at 70.5 h is -1.81%.
Regarding `OCC1(O)CCN(Cc2ccc(-c3cc[nH]n3)s2)CC1`, the cytotoxicity at 70.5 h was 6.86%.
Consider `Cc1c(-c2c(-c3ccccc3)ncn2[C@H](CO)C(=O)O)cnn1C`, for which the cytotoxicity at 70.5 h is -7.01%.
Under `CCC[C@@H]1CN(Cc2c[nH]c(CC3CCCC3)n2)C[C@H]1C(=O)O` stands -7.4%; under `CC(C)CC(O)C1CCN(C(=O)c2ccc(C(C)C)[nH]c2=O)CC1` (configuration not stated), 18.9%.
Under `COC(=O)c1cc(CN2CCN(c3nc(C)cnc3C)CC2)ccc1O` stands -1.95%; under `Cc1nc[nH]c1CN(C)CC1CCCN(CCc2ccc(Cl)cc2)C1` (configuration not stated), 20.5%; under `Cc1ccc(-c2cn[nH]c2C2CCCN(c3nccc(N)n3)C2)cc1` (configuration not stated), -1.62%.
Under `CCn1ncnc1C1CC(=O)NCc2nc3ccccn3c21` (configuration not stated) stands -3.8%; under `CN(C)C(=O)N1CCN(Cc2ccccc2)[C@@H]2CS(=O)(=O)C[C@@H]21`, -7.42%.
As to `CCc1ccc(CN2CCCC(CO)(CCOC)C2)cc1` (configuration not stated), the cytotoxicity at 70.5 h is -8.83%.
Under `CC(C)CN1CCCn2nc(CNC(=O)CCCc3cn[nH]c3)cc2C1` stands -9.85%.
To `CCc1nccc(CN2CCCC(c3nn(C)c(=O)n3CC)C2)n1` (configuration not stated) belongs -3.33%; to `Nc1nccc(N2CCC(Cc3ccccc3Cl)(C(=O)O)CC2)n1`, -2.75%; to `NC(=O)NCC(=O)N1C[C@H]2CC[C@@H]1CN(C1Cc3ccccc3C1)C2`, -10.1%.
On to `Cc1ncc(S(C)(=O)=O)c(C2CCCNC2)n1` (configuration not stated), for which the cytotoxicity at 70.5 h amounted to 2.69%.
To `CCn1c(CN2CCCC2)nnc1C1CCN(Cc2ccc(C)o2)CC1` belongs -5.38%.
`N#Cc1c(C2CC2)cc(-c2ccc(O)cc2)nc1N`: the cytotoxicity at 70.5 h was 1.29%.
For the compound `Cn1c(Cn2cccn2)nnc1C1CCN(Cc2cccnc2N)CC1`, the cytotoxicity at 70.5 h was -0.251%.
`Cc1nc(N2CCCCC2)ncc1C(=O)N1CC(C)(C)[C@@](C)(O)C1`: the cytotoxicity at 70.5 h is -6.11%.
Regarding `Cc1nccc(N2CCC(=O)N(Cc3ccc(F)cc3)C(C(C)C)C2)n1` (configuration not stated), the cytotoxicity at 70.5 h was -2.7%.
On to `O=C(Nc1ccc(F)cc1)N1C[C@H]2CC[C@@H]1CN(Cc1cccnc1)C2`, for which the cytotoxicity at 70.5 h is -3.12%.
To `OCCOCCN1CCCC1c1nc2cc(F)ccc2[nH]1` (configuration not stated) belongs 12%.
On to `Cc1nn2c(N3CCC(O)C3)cc(-c3ccccc3)nc2c1C` (configuration not stated), for which the cytotoxicity at 70.5 h was -5.83%.
Take `O=C(C1CC(=O)N(C2CCCC2)C1)N1CCN(CCn2cccc2)CC1` (configuration not stated): the cytotoxicity at 70.5 h is -5.71%.
Under `CCOC(=O)C1CCCN(c2ccc(-c3nc(C)no3)cn2)C1` (configuration not stated) stands -4.38%; under `Cc1ncc(C(=O)N2C[C@H]3CC[C@@H]2CN(S(=O)(=O)N(C)C)C3)c(C)n1`, -11.5%; under `Cn1c(Cn2cccn2)nnc1C1CCCN(c2ccncc2F)C1` (configuration not stated), 3.69%.
Take `CN1CC(c2ccccc2)CC12CCN(C(=O)c1ccc(F)cc1)CC2` (configuration not stated): the cytotoxicity at 70.5 h is -4.24%.
To `CCc1cc(NCCNc2cccnc2)n2nccc2n1` belongs -7.64%; to `Cc1cccc(C(=O)N2CCCCC2c2ccc(CN(C)C)cc2)n1` (configuration not stated), 18.3%.
`O=C1CC[C@H]2CN(Cc3ccc(Cl)s3)CC[C@H]2N1CCc1c[nH]cn1`: the cytotoxicity at 70.5 h is -7.7%.
`CSc1ncc(C(=O)N2C[C@H]3CC[C@@H]2CN(Cc2ccccc2)C3)cn1`: the cytotoxicity at 70.5 h was -1.13%.
As for `CC(=O)Nc1ccc(CNC2CC(=O)N(Cc3cccc(F)c3)C2)cc1` (configuration not stated), the cytotoxicity at 70.5 h is -8.05%.
`CCCn1c(C)c(CC(=O)NC)c2c1CC(C)(C)CC2=O`: the cytotoxicity at 70.5 h is -6.96%.
On to `O=C(CCn1cccn1)N1C[C@@H]2CC[C@H](C1)N(Cc1ccccn1)C2=O`, for which the cytotoxicity at 70.5 h was -2.38%.
Consider `Cn1ccc2ccc(C(=O)N3CCN(C(=O)N4CCOCC4)CC3)cc21`, for which the cytotoxicity at 70.5 h was 23.3%.
To `Cc1nc(CCCNC(=O)C2CC(=O)N(C(C)(C)C)C2)sc1C` (configuration not stated) belongs -7.69%; to `COc1cccc(N2CCN(Cc3ncc[nH]3)CC2=O)c1`, -10.6%; to `CC(C)N1CCCC2(CCN(C(=O)CCCn3ccnc3)C2)C1=O` (configuration not stated), -12.1%.
As to `COC(=O)c1cccc(C(=O)N2CCCCC2CCn2ccnc2C)c1` (configuration not stated), the cytotoxicity at 70.5 h was -1.17%.
For `CCC(=O)N1CCC2(CC1)c1nc[nH]c1CCN2S(C)(=O)=O`, the cytotoxicity at 70.5 h was -4.48%.
Turning to `CCCOCCN1CCC2(CC1)CC(c1ccccc1)C(=O)N2C` (configuration not stated), the cytotoxicity at 70.5 h was 25.1%.
Consider `CCC(CO)N(Cc1ccccn1)C(=O)c1ccc2c(c1)CCO2` (configuration not stated), for which the cytotoxicity at 70.5 h came to 15%.
As to `CN1CCN(Cc2nnc(C3CCN(CC4CC4)CC3)n2C)CC1`, the cytotoxicity at 70.5 h is -2.48%.
In the case of `COc1ccc(C(C(=O)O)N2CCCN(C3CCCCC3)CC2)cn1` (configuration not stated), the cytotoxicity at 70.5 h was -10.2%.
Under `Cc1nc(C)c(CC(=O)N2C[C@@H]3CC[C@H](C2)N(CC2CCC2)C3)c(=O)[nH]1` stands -6.37%; under `COc1ccccc1C1CNC(=O)c2nc(-c3ncc[nH]3)[nH]c2C1` (configuration not stated), -10.6%; under `Cc1ncc(-c2nc3cc(S(=O)(=O)N4CCCC4)ccc3n2C)cn1`, -0.434%.
Under `CCn1nc(C)c(CNC(=O)c2cn(CC3CCCO3)nn2)c1C` (configuration not stated) stands -1.67%; under `COCCN1CCCC(O)(CN2CCN(c3ncccc3C)CC2)C1=O` (configuration not stated), -7.68%.
Under `NCC1CN(c2nc(-c3ccccc3)nc3c2CCNCC3)CCO1` (configuration not stated) stands 3.02%.
Turning to `CC(C)N(Cc1ccc(C(=O)O)o1)C(C)C`, the cytotoxicity at 70.5 h is -7.28%.
